Read-outs that look alike come from different tables or passages of the source.
Tested on: Hedgehog signalling pathway
Test: Gli-reporter NIH3T3 luciferase assay (Hedgehog pathway inhibition)
Format: cell-based
Details: NIH3T3, Gli-reporter NIH-3T3 cells, recombinant mouse sonic hedgehog, 24 hours, luminescence
Method: In vitro biological evaluation of compounds of the invention was carried out using the procedure detailed below. The procedure provides activity data for the compounds of the invention against the Hedgehog signalling pathway. The activity is represented as IC50 values in Table 12 below.
The Gli-reporter NIH3T3 cell line (BPS Biosciences) was grown according to the suppliers recommendations. Briefly, cells were maintained in growth medium (DMEM supplemented with 10% calf serum, 1% Penicillin/Streptomycin, and 500 µg/mL of Geneticin) and grown at 37° C., 5% CO2. In order to passage cells they were first rinsed with phosphate buffered saline before the addition of 0.05% Trypsin/EDTA. Fresh growth media was added and the cells were transferred to a centrifuge tube, spun and resuspended at an appropriate cell density.
Gli-reporter NIH-3T3 cells were seeded at 20,000 cells/well into 96 well, poly-D-lysine coated white clear bottomed full area TC plates in growth media (without geneticin). Three wells were left with just media as cell free controls. Cells were then incubated for 24 hours at 37° C. in a 5% CO2.
Serial dilutions of the test compounds were prepared in 100% DMSO. 10 μl of compound or DMSO from each well was pipetted into a sterile, 0.5 ml deep well conical bottomed 96 well plate (intermediate plate). 190 μl of warmed assay media (Opti-MEM supplemented with 0.5% calf serum, 1% non-essential amino acids, 1 mM sodium pyruvate, 10 mM HEPES, 1% penicillin/Streptomycin) was then added to each well and mixed five times at 180 μl by electronic pipette to ensure homogeneity of the compound solution. This 1:20 dilution gives a top concentration of 50 μM in 5% DMSO, 95% assay media. 10 μl was pipetted from each well of the intermediate plate into a second deep well sterile plate. 490 μl of warm assay media was then added to each well and mixed five times at 300 μl. This gives a final top concentration of 1 μM in 0.1% DMSO.
After the 24 hour incubation, media was carefully removed by pipette and replaced with 45 μl of compound dilutions in triplicate. This was incubated for one hour at 37° C. in a 5% CO2. After an hour, 5 μl 10 μg/mL recombinant mouse sonic hedgehog (R&D Systems) was added to each well and the plates were incubated for a further 24 hours at 37° C., 5% CO2.
After 24 hours, plates were removed from the incubator and left to acclimatise to room temperature for 20 minutes. 50 μl of OneGLO assay reagent (Promega) was then added to each well and the plates gently shaken for a further 30 minutes. Plates were then read for luminescence on the EnVision plate reader (PerkinElmer).

[1] = read-out: Category (Hedgehog pathway inhibition activity, IC50)

Row | IC50 [1] [nM] | IC50 (read-out: Gli luc IC50) [nM] | Structure (SMILES) | other results
1 | 10 to 200 |  | CN(Cc1ccc(F)cc1F)C1CCN(c2nnc(-c3ccnn3C)c3ccccc23)CC1 [Example 67, N-[(2,4-difluorophenyl)methyl]-N-methyl-1-[4-(2-methylpyrazol-3-yl)phthalazin-1-yl]piperidin-4-amine] | 
2 | 200 to 2000 |  | Cn1nccc1-c1nnc(N2CCC(NCc3ccc(C#N)cc3)CC2)c2ccccc12 [Example 68, 4-[[[1-[4-(2-methylpyrazol-3-yl)phthalazin-1-yl]-4-piperidyl]amino]methyl]benzonitrile] | 
3 | 200 to 2000 |  | COc1ccccc1CNC1CCN(c2nnc(-c3ccnn3C)c3ccccc23)CC1 [Example 69, N-[(2-methoxyphenyl)methyl]-1-[4-(2-methylpyrazol-3-yl)phthalazin-1-yl]piperidin-4-amine] | 
4 | 10 to 200 |  | COc1cccc(CNC2CCN(c3nnc(-c4ccnn4C)c4ccccc34)CC2)c1 [Example 70, N-[(3-methoxyphenyl)methyl]-1-[4-(2-methylpyrazol-3-yl)phthalazin-1-yl]piperidin-4-amine] | 
5 | 200 to 2000 |  | COc1ccc(CNC2CCN(c3nnc(-c4ccnn4C)c4ccccc34)CC2)cc1 [Example 71, N-[(4-methoxyphenyl)methyl]-1-[4-(2-methylpyrazol-3-yl)phthalazin-1-yl]piperidin-4-amine] | 
6 | 10 to 200 |  | Cn1nccc1-c1nnc(N2CCC(NCc3ccccc3F)CC2)c2ccccc12 [Example 72, N-[(2-fluorophenyl)methyl]-1-[4-(2-methylpyrazol-3-yl)phthalazin-1-yl]piperidin-4-amine] | 
7 | 10 to 200 |  | Cn1nccc1-c1nnc(N2CCC(NCc3cccc(F)c3)CC2)c2ccccc12 [Example 73, N-[(3-fluorophenyl)methyl]-1-[4-(2-methylpyrazol-3-yl)phthalazin-1-yl]piperidin-4-amine] | 
8 | 200 to 2000 |  | Cn1nccc1-c1nnc(N2CCC(NCc3ccc(F)cc3F)CC2)c2ccccc12 [Example 74, N-[(2,4-difluorophenyl)methyl]-1-[4-(2-methylpyrazol-3-yl)phthalazin-1-yl]piperidin-4-amine] | 
9 | 200 to 2000 |  | Cn1nccc1-c1nnc(N2CCC(NCc3ccc(F)cc3)CC2)c2ccccc12 [Example 75, N-[(4-fluorophenyl)methyl]-1-[4-(2-methylpyrazol-3-yl)phthalazin-1-yl]piperidin-4-amine] | 
10 | 10 to 200 |  | Cn1nccc1-c1nnc(N2CCC(NCc3ccc(F)nc3F)CC2)c2ccccc12 [Example 76, N-[(2,6-difluoro-3-pyridyl)methyl]-1-[4-(2-methylpyrazol-3-yl)phthalazin-1-yl]piperidin-4-amine] | 
11 | 10 to 200 |  | CC(=O)N(Cc1ccc(F)cc1C(F)(F)F)C1CCN(c2nnc(-c3ccnn3C)c3ccccc23)CC1 [Example 77, N-[[4-fluoro-2-(trifluoromethyl)phenyl]methyl]-N-[1-[4-(2-methylpyrazol-3-yl)phthalazin-1-yl]-4-piperidyl]acetamide] | 
12 | < 10 |  | CN(Cc1ccc(F)cc1C(F)(F)F)C1CCN(c2nnc(-c3ccnn3C)c3ccccc23)CC1 [Example 78, N-[[4-fluoro-2-(trifluoromethyl)phenyl]methyl]-N-methyl-1-[4-(2-methylpyrazol-3-yl)phthalazin-1-yl]piperidin-4-amine] | 
13 | < 10 |  | Cn1nccc1-c1nnc(N2CCC(NCc3ccc(F)cc3C(F)(F)F)CC2)c2ccccc12 [Example 79, N-[[4-fluoro-2-(trifluoromethyl)phenyl]methyl]-1-[4-(2-methylpyrazol-3-yl)phthalazin-1-yl]piperidin-4-amine] | IC50 (read-out: Gli Luc nM (IC50)): 7.85 nM
14 |  | < 10 | CN(C(=O)Nc1ccc(F)cc1C(F)(F)F)C1CCN(c2nnc(-c3ccnn3C)c3ncccc23)CC1 [Example 80, 3-[4-fluoro-2-(trifluoromethyl)phenyl]-1-methyl-1-[1-[8-(2-methylpyrazol-3-yl)pyrido[2,3-d]pyridazin-5-yl]-4-piperidyl]urea] | 
15 |  | < 10 | Cc1c(-c2ccnn2C)nnc(N2CCC(N(C)Cc3ccccc3[N+](=O)[O-])CC2)c1C [Example 81, 1-[4,5-dimethyl-6-(2-methylpyrazol-3-yl)pyridazin-3-yl]-N-methyl-N-[(2-nitrophenyl)methyl]piperidin-4-amine] | 
16 |  | 10 to 200 | Cc1c(-c2ccnn2C)nnc(N2CCC(N(C)Cc3ccccc3C(C)C)CC2)c1C [Example 82, 1-[4,5-dimethyl-6-(2-methylpyrazol-3-yl)pyridazin-3-yl]-N-[(2-isopropylphenyl)methyl]-N-methyl-piperidin-4-amine] | 
17 |  | 10 to 200 | Cc1c(-c2ccnn2C)nnc(N2CCC(N(C)Cc3cccc(OC(F)(F)F)c3)CC2)c1C [Example 83, 1-[4,5-dimethyl-6-(2-methylpyrazol-3-yl)pyridazin-3-yl]-N-methyl-N-[[3-(trifluoromethoxy)phenyl]methyl]piperidin-4-amine] | 
18 |  | 10 to 200 | Cc1c(-c2ccnn2C)nnc(N2CCC(N(C)Cc3ccccc3C(F)(F)F)CC2)c1C [Example 84, 1-[4,5-dimethyl-6-(2-methylpyrazol-3-yl)pyridazin-3-yl]-N-methyl-N-[[2-(trifluoromethyl)phenyl]methyl]piperidin-4-amine] | 
19 |  | 10 to 200 | Cc1c(-c2ccnn2C)nnc(N2CCC(N(C)Cc3ncccc3C(F)(F)F)CC2)c1C [Example 85, 1-[4,5-dimethyl-6-(2-methylpyrazol-3-yl)pyridazin-3-yl]-N-methyl-N-[[3-(trifluoromethyl)-2-pyridyl]methyl]piperidin-4-amine] | 
20 |  | > 200 | CN(Cc1ccncn1)C1CCN(c2nnc(-c3ccnn3C)c3ccccc23)CC1 [Example 86, N-methyl-1-[4-(2-methylpyrazol-3-yl)phthalazin-1-yl]-N-(pyrimidin-4-ylmethyl)piperidin-4-amine] | 
21 |  | 10 to 200 | Cc1c(-c2ccnn2C)nnc(N2CCC(N(C)Cc3ccccc3C#N)CC2)c1C [Example 87, 2-[[[1-[4,5-dimethyl-6-(2-methylpyrazol-3-yl)pyridazin-3-yl]-4-piperidyl]-methyl-amino]methyl]benzonitrile] | 
22 |  | > 200 | CSc1ccccc1CN(C)C1CCN(c2nnc(-c3ccnn3C)c(C)c2C)CC1 [Example 88, 1-[4,5-dimethyl-6-(2-methylpyrazol-3-yl)pyridazin-3-yl]-N-methyl-N-[(2-methylsulfanylphenyl)methyl]piperidin-4-amine] | 
23 |  | > 200 | Cc1c(-c2ccnn2C)nnc(N2CCC(N(C)Cc3ccnnc3)CC2)c1C [Example 90, 1-[4,5-dimethyl-6-(2-methylpyrazol-3-yl)pyridazin-3-yl]-N-methyl-N-(pyridazin-4-ylmethyl)piperidin-4-amine] | 
24 |  | > 200 | CN(Cc1ccnnc1)C1CCN(c2nnc(-c3ccnn3C)c3ccccc23)CC1 [Example 91, N-methyl-1-[4-(2-methylpyrazol-3-yl)phthalazin-1-yl]-N-(pyridazin-4-ylmethyl)piperidin-4-amine] | 
25 |  | 10 to 200 | CSc1nccc(CN(C)C2CCN(c3nnc(-c4ccnn4C)c4ccccc34)CC2)n1 [Example 92, N-methyl-1-[4-(2-methylpyrazol-3-yl)phthalazin-1-yl]-N-[(2-methylsulfanylpyrimidin-4-yl)methyl]piperidin-4-amine] | 
26 |  | > 200 | CSc1nccc(CN(C)C2CCN(c3nnc(-c4ccnn4C)c(C)c3C)CC2)n1 [Example 93, 1-[4,5-dimethyl-6-(2-methylpyrazol-3-yl)pyridazin-3-yl]-N-methyl-N-[(2-methylsulfanylpyrimidin-4-yl)methyl]piperidin-4-amine] | 
27 |  | > 200 | Cn1nccc1-c1nnc(N2CCC(N(Cc3ccc(F)cc3C(F)(F)F)C3CC3)CC2)c2ccccc12 [Example 94, N-cyclopropyl-N-[[4-fluoro-2-(trifluoromethyl)phenyl]methyl]-1-[4-(2-methylpyrazol-3-yl)phthalazin-1-yl]piperidin-4-amine] | 
28 |  | 10 to 200 | Cc1nc(C(F)(F)F)c(CN(C)C2CCN(c3nnc(-c4ccnn4C)c(C)c3C)CC2)s1 [Example 95, 1-[4,5-dimethyl-6-(2-methylpyrazol-3-yl)pyridazin-3-yl]-N-methyl-N-[[2-methyl-4-(trifluoromethyl)thiazol-5-yl]methyl]piperidin-4-amine] | 
29 |  | < 10 | Cc1nc(C(F)(F)F)c(CN(C)C2CCN(c3nnc(-c4ccnn4C)c4ccccc34)CC2)s1 [Example 96, N-methyl-1-[4-(2-methylpyrazol-3-yl)phthalazin-1-yl]-N-[[2-methyl-4-(trifluoromethyl)thiazol-5-yl]methyl]piperidin-4-amine] | 

— patent publication US9579319B2 (Redx Pharma PLC, priority 2013, dated 2017)
